In US20260098008A1, “COVALENT, CHEMOGENETIC ACTIVATORS FOR K2P POTASSIUM CHANNELS AND USES THEREOF” (THE REGENTS OF THE UNIVERSITY OF CALIFORNIA, priority 2022, published 2026):
Substitutions are numbered along the chain they refer to.

Experiments:
Type in all cases: cell-based
G171F TREK-1^CG* = molecular target: T1, G171F TREK-1^CG* (Mus musculus, UniProt P97438, G186F/S146C); test: TEVC in Xenopus oocytes, attenuated channels; settings: 20 μM; sequential addition of ML335, CAT335, BL-1249; 0 mV
T1 construct: expressed in transfected cells; host or cells: Xenopus laevis oocytes injected with mRNA
T1 sequence (P97438 1-411 isoform P97438-2 S131C/G171F): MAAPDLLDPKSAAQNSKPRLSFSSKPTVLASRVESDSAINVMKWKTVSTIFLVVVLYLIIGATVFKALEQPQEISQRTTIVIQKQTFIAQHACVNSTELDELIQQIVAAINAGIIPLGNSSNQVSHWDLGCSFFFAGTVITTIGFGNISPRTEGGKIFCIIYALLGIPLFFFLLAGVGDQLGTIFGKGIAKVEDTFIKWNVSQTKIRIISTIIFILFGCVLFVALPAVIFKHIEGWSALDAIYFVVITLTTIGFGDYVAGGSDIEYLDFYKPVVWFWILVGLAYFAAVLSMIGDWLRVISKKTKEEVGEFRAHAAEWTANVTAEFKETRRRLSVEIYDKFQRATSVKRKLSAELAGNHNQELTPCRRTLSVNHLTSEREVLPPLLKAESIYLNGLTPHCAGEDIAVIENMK
Source text: (§1) Mouse K2P2.1 (TREK-1) (Genbank accession number: NP_034737.2), mouse K2P10.1 (TREK-2) (NM_001316665.1), mouse K2P4.1 (TRAAK) (NM_008431.3), human K2P4.1 (TRAAK) (NM_033310.2) and mouse K2P18.1(TRESK) (NM_207261.3) were used for this study. Point mutations were introduced by site-directed mutagenesis using custom primers and confirmed by sequencing before use. For studies using Xenopus oocytes, K2P channels were subcloned into a previously reported pGEMHE/pMO vector (46). For expression in HEK293 cells, mouse K2P2.1 (TREK-1) and mutants were expressed from a previously described pIRES2-EGFP vector in HEK293 cells (46,47). K2P2.1 (TREK-1) tandems were constructed by connecting the open reading frames for the individual subunits with a linker encoding the […] (SEQ ID NO: 19) sequence. Tandems used for HEK293 cells included an N-terminal HA tag ([…] (SEQ ID NO: 20)) on the first subunit.
(§2) Xenopus laevis oocytes were harvested according to UCSF IACUC Protocol AN129690 and digested using collagenase (Worthington Biochemical Corporation, #LS004183, 0.8-1.0 mg/mL) in Ca^21-free ND96 (96 mM NaCl, 2 mM KCl, 3.8 mM MgCl2, 5 mM HEPES pH 7.4) immediately post-harvest, as previously reported (31,33). Oocytes were maintained at 18° C. in ND96 (96 mM NaCl, 2 mM KCl, 1.8 mM CaCl2, 2 mM MgCl2, 5 mM HEPES pH 7.4) supplemented with antibiotics (100 units mL^−1 penicillin, 100 μg mL^−1 streptomycin, 50 μg mL^−1 gentimycin) and used for experiments within one week of harvest.
(§3) Defolliculated stage V-VI oocytes were microinjected with 0.5-36 ng mRNA and currents were recorded within 16-48 h hours of injection.
(§4) For recordings, oocytes were impaled with borosilicate recording microelectrodes (0.4-2.0 MΩ resistance) backfilled with 3 M KCl and were subjected to constant perfusion of ND96 at a rate of 3 ml min^−1. Recording solutions containing K2P activators were prepared immediately prior to use from DMSO stocks (20-100 mM), with final DMSO concentrations of 0.1%. Currents were evoked from a −80 mV holding potential followed by a 300 ms ramp from −150 mV to +50 mV. Data were recorded using a GeneClamp 500B amplifier (MDS Analytical Technologies) controlled by pCLAMP8 software (Molecular Devices), and digitized at 1 kHz using Digidata 1332 Å digitizer (MDS Analytical Technologies). For each recording, control solution (ND96) was perfused over a single oocyte until current was stable before switching to solutions containing the test compounds at various concentrations. Representative traces and dose response plots were generated in GraphPad Prism 9.

K2P2.1 (TREK-1) = molecular target: T2, K2P2.1 (TREK-1) (Mus musculus, UniProt P97438); test: Two-electrode voltage clamp (TEVC) in Xenopus oocytes; settings: for Fold-activation (I activator/I control): currents at 0 mV
T2 construct: expressed in transfected cells; host or cells: Xenopus laevis oocytes injected with mRNA (pGEMHE/pMO vector)
T2 sequence (P97438 1-411 isoform P97438-2): T1 sequence (P97438 1-411 isoform P97438-2 S131C/G171F) with C131S, F171G
Source text: as §1, §2, §3, §4

[1] = molecular target: T3, CG*-CG* tandem K2P2.1 (TREK-1) (Mus musculus, UniProt P97438, S146C); test: TEVC in Xenopus oocytes, tandem channels; settings: 20 μM, sequential application
T3 construct: expressed in transfected cells; host or cells: Xenopus laevis oocytes injected with mRNA
T3 sequence (P97438 1-411 isoform P97438-2 S131C) 1: T1 sequence (P97438 1-411 isoform P97438-2 S131C/G171F) with F171G
T3 sequence (P97438 1-411 isoform P97438-2 S131C) 2: T1 sequence (P97438 1-411 isoform P97438-2 S131C/G171F) with F171G
Source text: as §1, §2, §3, §4

[2] = molecular target: T4, CG*-WT tandem K2P2.1 (TREK-1) (Mus musculus, UniProt P97438, S146C); test: TEVC in Xenopus oocytes, tandem channels; settings: 20 μM; for Fold-activation (I activator/I control): sequential application, Xenopus oocytes
T4 construct: expressed in transfected cells; host or cells: Xenopus laevis oocytes injected with mRNA
T4 sequence (P97438 1-411 isoform P97438-2 S131C): T1 sequence (P97438 1-411 isoform P97438-2 S131C/G171F) with F171G
T4 sequence (P97438 1-411 isoform P97438-2): T1 sequence (P97438 1-411 isoform P97438-2 S131C/G171F) with C131S, F171G
Source text: as §1, §2, §3, §4

[3] = molecular target: T5, WT-CG* tandem K2P2.1 (TREK-1) (Mus musculus, UniProt P97438, S146C); test: TEVC in Xenopus oocytes, tandem channels; settings: 20 μM; for Fold-activation (I activator/I control): sequential application, Xenopus oocytes
T5 construct: expressed in transfected cells; host or cells: Xenopus laevis oocytes injected with mRNA
T5 sequence (P97438 1-411 isoform P97438-2): T1 sequence (P97438 1-411 isoform P97438-2 S131C/G171F) with C131S, F171G
T5 sequence (P97438 1-411 isoform P97438-2 S131C): T1 sequence (P97438 1-411 isoform P97438-2 S131C/G171F) with F171G
Source text: as §1, §2, §3, §4

[4] = molecular target: T6, WT-WT tandem K2P2.1 (TREK-1) (Mus musculus, UniProt P97438); test: TEVC in Xenopus oocytes, tandem channels; settings: 20 μM, sequential application
T6 construct: expressed in transfected cells; host or cells: Xenopus laevis oocytes injected with mRNA
T6 sequence (P97438 1-411 isoform P97438-2) 1: T1 sequence (P97438 1-411 isoform P97438-2 S131C/G171F) with C131S, F171G
T6 sequence (P97438 1-411 isoform P97438-2) 2: T1 sequence (P97438 1-411 isoform P97438-2 S131C/G171F) with C131S, F171G
Source text: as §1, §2, §3, §4

Fold-activation (I activator/I control) (G171F TREK-1^CG*)	Fold-activation after compound washout (K2P2.1 (TREK-1); 20 μM, after washout, Xenopus oocytes) [fold]	Fold-activation (I activator/I control) (K2P2.1 (TREK-1); 20 μM, Xenopus oocytes) [fold]	Fold-activation (I activator/I control) [1] [fold]	Fold-activation relative to activation of the CG*-CG* homodimer [2]	Fold-activation (I activator/I control) [2] [fold]	Fold-activation relative to activation of the CG*-CG* homodimer [3]	Fold-activation (I activator/I control) [3] [fold]	Fold-activation (I activator/I control) [4] [fold]	Reversibility of activation on washout (K2P2.1 (TREK-1); 20 μM, Xenopus oocytes)	Emax (IML335/Icontrol) (K2P2.1 (TREK-1); TEVC at 0 mV) [fold activation]	EC50 (K2P2.1 (TREK-1); TEVC at 0 mV, normalized to initial currents) [µM]	Structure (SMILES)
62+3 fold	–	–	–	–	–	–	–	–	–	–	–	c1ccc(-c2nn[nH]n2)c(Nc2cccc3c2CCCC3)c1 [BL-1249, reference compound]
7.8±1.2 fold	4.0 ± 0.6	2.0±0.2	14.7 ± 0.9	60-80%	8.9 ± 1.1	60-80%	11.5 ± 1.1	1.37 ± 0.07	–	–	–	O=C(NCc1ccc(Cl)cc1Cl)c1ccc(N2C(=O)C=CC2=O)cc1 [CAT335]
–	–	6.5	4.5±0.3	–	5.0±0.5	–	5.6 ± 0.4	6.8 ± 0.5	immediate reversal	15.8±1.3	24 ± 4	CS(=O)(=O)Nc1ccc(C(=O)NCc2ccc(Cl)cc2Cl)cc1 [ML335, reference compound]
